Results on 13 molecules are retold here after article PMC4580724 (Clinical Pharmacokinetics, 2015).

The conditions of series [1]: arm 2.
The format of series [2] is in vivo, human.
Series [3] can be described thus: Population pharmacokinetic modeling and simulation. On the set-up: species or system human. To be noted: with gemfibrozil vs enzalutamide alone.
Series [4] is classed as in vivo, human. As to conditions: for t max: median [range]; for AUCτ: one 24-h dosing interval at steady state, 14 patients, enzalutamide 160 mg once daily for 49 days.
The conditions of series [5]: cited from earlier work.
The target in a further series is T1, CYP2C8 (Homo sapiens, UniProt P10632).
T1 sequence (P10632 1-490): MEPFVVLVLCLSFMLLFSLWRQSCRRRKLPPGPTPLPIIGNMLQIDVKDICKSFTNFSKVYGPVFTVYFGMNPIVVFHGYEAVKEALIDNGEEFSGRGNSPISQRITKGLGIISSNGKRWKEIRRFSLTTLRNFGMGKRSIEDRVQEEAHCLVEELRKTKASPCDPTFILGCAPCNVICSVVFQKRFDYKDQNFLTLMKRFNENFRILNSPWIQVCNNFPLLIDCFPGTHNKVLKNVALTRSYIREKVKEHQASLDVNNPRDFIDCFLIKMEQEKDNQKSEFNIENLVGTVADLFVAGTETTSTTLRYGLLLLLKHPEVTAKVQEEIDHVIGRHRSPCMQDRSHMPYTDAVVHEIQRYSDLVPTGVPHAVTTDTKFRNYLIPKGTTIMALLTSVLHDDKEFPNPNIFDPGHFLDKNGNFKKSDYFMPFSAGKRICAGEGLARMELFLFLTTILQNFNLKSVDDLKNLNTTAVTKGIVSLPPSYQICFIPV
To be noted: human hepatic microsomes; cited from earlier work.

The subject of the next series is CYP2C19. To be noted: human hepatic microsomes; cited from earlier work.
A further series has as its system CYP2B6. To be noted: human hepatic microsomes; cited from earlier work.
For another series, the system named is CYP2C9. As to conditions: human hepatic microsomes; cited from earlier work.
Series [6] is classed as in vivo, human. To be noted: for AUC∞ geometric mean ratio test/reference (90 % CI) / C max geometric mean ratio test/reference (90 % CI): substrate + enzalutamide 160 mg/day vs substrate + placebo-to-match, n = 14.
The conditions of series [7]: cited from earlier work. This is another data set of the same source.
For series [8] the following is noted: cited from earlier work. This is another data set of the same source.
The conditions of series [9]: patients with mCRPC; cited from earlier work.
Series [10] concerns CYP3A4. As to conditions: human primary hepatocyte cultures; cited from earlier work.
In series [11] the test system is CYP3A4. Nature of the series: Clinical effect of enzalutamide on CYP3A4. As to conditions: enzalutamide 160 mg once daily; oral midazolam.
Where [12] appears, read: with itraconazole vs enzalutamide alone.
Where [13] appears, read: with itraconazole vs enzalutamide alone, observed data.
Setting [14] is: 14 patients taking enzalutamide 160 mg once daily for 49 days, mean ± standard deviation.
Setting [15] is: 14 patients taking enzalutamide 160 mg once daily for 49 days.
[16] abbreviates: enzalutamide 160 mg/day vs placebo-to-match.

Several values for one entry are separate records, joined by “and”; a condition that tells them apart may be missing. Equal values may be shown once. Read-outs that look alike come from different tables or passages of the source.

`Cc1ccc(C)c(OCCCC(C)(C)C(=O)O)c1` [gemfibrozil]: in [1], the “adverse event above NCI-CTCAE grade 1 with possible relationship” value is recorded as “grade 2 flatulence in one subject”.

Consider `CC1(C)C(=O)N(c2ccc(C#N)c(C(F)(F)F)c2)C(=S)N1c1ccc(C(N)=O)c(F)c1` [N-desmethyl enzalutamide], for which, in series [2] (with gemfibrozil vs enzalutamide alone), the “decrease in Cmax” value is recorded as 44%. Further, in series [2] (with gemfibrozil vs enzalutamide alone, observed data), the “decrease in AUC18 d” value was found to be 67%. Further, in series [2] (setting [12]), the “decrease in AUC18 d” value stood at 4% and the “decrease in Cmax” value is 14%. In addition, the “increase in AUC∞” value in series [2] (setting [13]) worked out at 1.21 fold. Also, the “decrease in AUC∞” value in series [3] is 25%. Besides, in series [4] (setting [14]), the C max was found to be 12700 ± 3770 ng/mL; the C trough was 10600 ng/mL and 10600 ± 3270 ng/mL. For the same molecule, the t max in series [4] (setting [15]) was 4.0 [0.0–24.0] h. For the same molecule, the AUCτ in [4] (mean ± standard deviation) stood at 278 ± 85.5 µg·h/mL. For the same molecule, the “circulating plasma concentrations relative to enzalutamide” value in series [5] is “approximately the same plasma concentrations as enzalutamide”. In addition, the “inhibition of CYP2C8” value at CYP2C8 is given as “may act as inhibitors”. Further, the “inhibition of CYP2C19” value in the series on CYP2C19 was “may act as inhibitors”. The “inhibition of CYP2B6” value with CYP2B6 was “lesser inhibitory effects”. The “inhibition of CYP2C9” value with CYP2C9 is reported as “lesser inhibitory effects”.

As for `COc1ccc2[nH]c([S+]([O-])Cc3ncc(C)c(OC)c3C)nc2c1` (stereo not drawn) [omeprazole, reference compound], in series [6] (setting [16]), the “decrease in AUC∞ by enzalutamide” value amounted to 70%. For the same molecule, in series [6], the “AUC∞ geometric mean ratio test/reference (90 % CI)” value is 0.30 (0.24–0.36) and the “C max geometric mean ratio test/reference (90 % CI)” value was 0.38 (0.26–0.54).

Regarding `Cc1ncc2n1-c1ccc(Cl)cc1C(c1ccccc1F)=NC2` [midazolam, reference compound], the “decrease in AUC∞ by enzalutamide” value in series [6] (setting [16]) is reported as 86%. In [6], the “AUC∞ geometric mean ratio test/reference (90 % CI)” value is on record as 0.14 (0.12–0.17) and the “C max geometric mean ratio test/reference (90 % CI)” value is on record as 0.23 (0.20–0.27).

For `COc1ccc2nc([S+]([O-])Cc3ncc(CO)c(OC)c3C)[nH]c2c1` (stereo not drawn) [5-Hydroxy-omeprazole], in series [6] (setting [16]), the “decrease in AUC∞ by enzalutamide” value is 54%. Also, in series [6], the “AUC∞ geometric mean ratio test/reference (90 % CI)” value was 0.46 (0.39–0.53) and the “C max geometric mean ratio test/reference (90 % CI)” value is recorded as 0.64 (0.50–0.83).

Regarding `OCc1ncc2n1-c1ccc(Cl)cc1C(c1ccccc1F)=NC2` [1-Hydroxy-midalozam, 1-hydroxy-midazolam], the “decrease in AUC∞ by enzalutamide” value in [6] (setting [16]) is on record as 76%. In addition, in [6], the “AUC∞ geometric mean ratio test/reference (90 % CI)” value was 0.24 (0.20–0.28) and the “C max geometric mean ratio test/reference (90 % CI)” value is given as 0.29 (0.24–0.35).

In series [4] (setting [14]), `CC1(C)C(=O)N(c2ccc(C#N)c(C(F)(F)F)c2)C(=S)N1c1ccc(C(=O)O)c(F)c1` [Carboxylic acid metabolite] had a C max of 8860 ± 6520 ng/mL and a C trough of 6320 ± 5190 ng/mL. Besides, the t max in series [4] (setting [15]) was 3.5 [0.0–24.0] h. In addition, the AUCτ in series [4] (mean ± standard deviation) was determined as 193 ± 144 µg·h/mL. Also, the “plasma concentrations lower than enzalutamide” value in [5] (circulating concentrations) is on record as “approximately 25%”. Also, the “inhibition of CYP2C8” value at CYP2C8 is reported as “may act as inhibitors”. Further, the “inhibition of CYP2C19” value in the series on CYP2C19 is “may act as inhibitors”. For the same molecule, the “inhibition of CYP2B6” value with CYP2B6 is listed as “lesser inhibitory effects”. Moreover, the “inhibition of CYP2C9” value with CYP2C9 is on record as “lesser inhibitory effects”. Further, the “pharmacological activity (primary and secondary pharmacodynamics)” value in [7] was “pharmacologically inactive”.

For `CC(=O)C[C@H](c1ccccc1)c1c(O)c2ccccc2oc1=O` [R-warfarin, reference compound], in series [6] (setting [16]), the “decrease in AUC∞ by enzalutamide” value is listed as 45%.

In the case of `CCc1ccc(CCOc2ccc(CC3SC(=O)NC3=O)cc2)nc1` (stereo not drawn) [pioglitazone, reference compound], the “increase in AUC∞ by enzalutamide” value in series [6] (setting [16]) was 20%. Also, in [6], the “AUC∞ geometric mean ratio test/reference (90 % CI)” value is on record as 1.20 (0.98–1.47) and the “C max geometric mean ratio test/reference (90 % CI)” value is recorded as 0.82 (0.67–1.01).

As for `CC(=O)C[C@@H](c1ccccc1)c1c(O)c2ccccc2oc1=O` [S-warfarin, reference compound], the “decrease in AUC∞ by enzalutamide” value in [6] (setting [16]) is reported as 56%.

By CL/F is commonly meant the apparent clearance, not corrected for the fraction that reaches the circulation. The term Cmax denotes the highest concentration seen after dosing. What is called aqueous solubility is the dissolved amount per volume that the medium holds. Take `CNC(=O)c1ccc(N2C(=S)N(c3ccc(C#N)c(C(F)(F)F)c3)C(=O)C2(C)C)cc1F` [Enzalutamide, enzalutamide, reference compound]: the “increase in AUC∞” value is reported as 1.41 fold in series [2] (setting [13]) and 4.26 fold in [3]. This molecule also had a C trough in series [4] (setting [14]) of 12000 ± 3510 ng/mL. For the same molecule, the CL/F in series [4] (setting [14]) came out at 0.52 ± 0.09 L/h. In addition, the concentration at 49 d in [4] (human, plasma, oral, 160 mg once daily) was determined as 12000 ng/mL. The Cmax in [4] (human, plasma, oral, 160 mg, C max, 14 patients taking enzalutamide 160 mg once daily for 49 days, mean ± standard deviation) is approximately 17000 ng/mL. Besides, the aqueous solubility in series [8] is not above 2.0 µg/mL. The maximum tolerated dose in series [9] is reported as 240 mg/day. Moreover, the “inhibition of CYP2C8” value on CYP2C8 is “may act as inhibitors”. Further, the “inhibition of CYP2C19” value in the series on CYP2C19 is given as “may act as inhibitors”. In addition, the “inhibition of CYP2B6” value with CYP2B6 is listed as “lesser inhibitory effects”. The “inhibition of CYP2C9” value with CYP2C9 is “lesser inhibitory effects”. Also, in the series with CYP3A4 [10], the “induction of CYP3A4 messenger RNA and enzymatic activity” value was “may cause increases in messenger RNA and enzymatic activity for CYP3A4”. Moreover, the CYP3A4 induction classification result with CYP3A4 [11] was “strong inducer”.

As for `CC(O)c1ccc(CCOc2ccc(CC3SC(=O)NC3=O)cc2)nc1` (stereo not drawn) [Hydroxy-pioglitazone (M-IV), Hydroxy-pioglitazone], the “decrease in AUC∞ by enzalutamide” value in series [6] (setting [16]) came out at 37%. Further, in series [6], the “AUC∞ geometric mean ratio test/reference (90 % CI)” value was 0.63 (0.52–0.77) and the “C max geometric mean ratio test/reference (90 % CI)” value is reported as 0.60 (0.52–0.70).

In the case of `CC(=O)C[C@@H](c1ccccc1)c1c(O)c2ccc(O)cc2oc1=O` [7-Hydroxy-S-warfarin], the “decrease in AUC∞ by enzalutamide” value in series [6] (setting [16]) came to 53%. In series [6], the “AUC∞ geometric mean ratio test/reference (90 % CI)” value is reported as 0.47 (0.35–0.63) and the “C max geometric mean ratio test/reference (90 % CI)” value is on record as 0.83 (0.71–0.99).
